Measurements: paper PMC6001238, “Iterative Chemical Engineering of Vancomycin Leads to Novel Vancomycin Analogs With a High in Vitro Therapeutic Index” (Frontiers in Microbiology, 2018)
In brackets after ≈: the same amount, converted by molar mass.

Tests used:
[1] = test system: Murine leukemia (L1210) cells; experiment: Cytostatic activity, L1210 cell proliferation; format: cell-based; conditions: mean ± SD of three experiments; highest concentration tested 250 µM; 2 days; read-out: Toxicity (IC50) L1210
Summary of the method: (§1)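 Suspensions (300,000–500,000 cells/mL) combined with equal volumes of diluted compound; 37°C; L1210 2 d / CEM 3 d / HeLa 4 d; counted by Coulter counter; IC50 vs untreated wells.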

[2] = test system: MRSA KS2; experiment: MIC, broth microdilution, MRSA KS2; format: cell-based, Staphylococcus aureus; conditions: for MIC-fold improvement vs. vancomycin: MRSA KS2, ratio of MIC of vancomycin and MIC of analogue; for MIC: Staphylococcus aureus MRSA KS2, read-out: MIC
Summary of the method: (§2)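 Serial dilutions in broth, set up per CLSI guidance, gave the MIC. Where noted, test analogues or comparator antibiotics were combined with vancomycin at 10 μM final. Controls: ultrapure water, broth without inoculum.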

[3] = test system: E. faecalis VRE 37; experiment: MIC, broth microdilution, vancomycin-resistant E. faecalis VRE 37 (VanA); format: cell-based, Enterococcus faecalis; conditions: for MIC: Enterococcus faecalis VRE 37 (vancomycin-resistant), read-out: MIC; for MIC-fold improvement vs. vancomycin: VRE 37, ratio of MIC of vancomycin and MIC of analogue
Summary of the method: as §2

[4] = test system: E. faecalis VRE 29; experiment: MIC, broth microdilution, vancomycin-resistant E. faecalis VRE 29 (VanA); format: cell-based, Enterococcus faecalis; conditions: for MIC: Enterococcus faecalis VRE 29 (vancomycin-resistant), read-out: MIC; for MIC-fold improvement vs. vancomycin: VRE 29, ratio of MIC of vancomycin and MIC of analogue
Summary of the method: as §2

[5] = test system: human cervix carcinoma (HeLa) cells; experiment: Cytostatic activity, HeLa cell proliferation; format: cell-based; conditions: mean ± SD of three experiments; highest concentration tested 250 µM; 4 days; read-out: Toxicity (IC50) HeLa
Summary of the method: as §1

[6] = test system: MRSA KS1; experiment: MIC, broth microdilution, MRSA KS1; format: cell-based, Staphylococcus aureus; conditions: for MIC-fold improvement vs. vancomycin: MRSA KS1, ratio of MIC of vancomycin and MIC of analogue; for MIC: Staphylococcus aureus MRSA KS1, read-out: MIC
Summary of the method: as §2

[7] = test system: S. aureus VSSA (ATCC 6538); experiment: MIC, broth microdilution, vancomycin-sensitive S. aureus (VSSA/MSSA, ATCC 6538); format: cell-based, Staphylococcus aureus; conditions: for MIC: Staphylococcus aureus VSSA, read-out: MIC; for MIC-fold improvement vs. vancomycin: VSSA, ratio of MIC of vancomycin and MIC of analogue
Summary of the method: as §2

[8] = test system: E. faecalis VSE 1; experiment: MIC, broth microdilution, vancomycin-sensitive E. faecalis (VSE 1); format: cell-based, Enterococcus faecalis; conditions: for MIC: Enterococcus faecalis VSE 1 (vancomycin-sensitive), read-out: MIC; for MIC-fold improvement vs. vancomycin: VSE 1, ratio of MIC of vancomycin and MIC of analogue
Summary of the method: as §2

[9] = test system: S. aureus VRSA; experiment: MIC, broth microdilution, vancomycin-resistant S. aureus (VRSA); format: cell-based, Staphylococcus aureus; conditions: for MIC: Staphylococcus aureus VRSA, read-out: MIC; for MIC-fold improvement vs. vancomycin: VRSA, ratio of MIC of vancomycin and MIC of analogue
Summary of the method: as §2

[10] = test system: MRSA KS6; experiment: MIC, broth microdilution, MRSA KS6; format: cell-based, Staphylococcus aureus; conditions: for MIC-fold improvement vs. vancomycin: MRSA KS6, ratio of MIC of vancomycin and MIC of analogue; for MIC: Staphylococcus aureus MRSA KS6, read-out: MIC
Summary of the method: as §2

[11] = test system: MRSA KS89; experiment: MIC, broth microdilution, MRSA KS89; format: cell-based, Staphylococcus aureus; conditions: for MIC-fold improvement vs. vancomycin: MRSA KS8, ratio of MIC of vancomycin and MIC of analogue; for MIC: Staphylococcus aureus MRSA KS8, read-out: MIC
Summary of the method: as §2

[12] = test system: L1210, CEM and HeLa cell lines; experiment: Cytostatic activity, average or summary over L1210, CEM and HeLa; format: cell-based; conditions: average of L1210, CEM and HeLa; read-out: Toxicity (IC50) Average
Summary of the method: as §1

[13] = test system: E. faecalis VRE 6; experiment: MIC, broth microdilution, vancomycin-resistant E. faecalis VRE 6 (VanA); format: cell-based, Enterococcus faecalis; conditions: for MIC: Enterococcus faecalis VRE 6 (vancomycin-resistant), read-out: MIC; for MIC-fold improvement vs. vancomycin: VRE 6, ratio of MIC of vancomycin and MIC of analogue
Summary of the method: as §2

[14] = test system: S. aureus VISA/HIP5827; experiment: MIC, broth microdilution, vancomycin-intermediate S. aureus VISA HIP5827; format: cell-based, Staphylococcus aureus; conditions: for MIC: Staphylococcus aureus VISA/HIP5827, read-out: MIC; for MIC-fold improvement vs. vancomycin: VISA/HIP5827, ratio of MIC of vancomycin and MIC of analogue
Summary of the method: as §2

[15] = test system: human T-lymphocyte (CEM) cells; experiment: Cytostatic activity, CEM cell proliferation; format: cell-based; conditions: mean ± SD of three experiments; highest concentration tested 250 µM; 3 days; read-out: Toxicity (IC50) CEM
Summary of the method: as §1

[16] = test system: E. faecalis VRE 53; experiment: MIC, broth microdilution, vancomycin-resistant E. faecalis VRE 53 (VanA); format: cell-based, Enterococcus faecalis; conditions: for MIC: Enterococcus faecalis VRE 53 (vancomycin-resistant), read-out: MIC; for MIC-fold improvement vs. vancomycin: VRE 53, ratio of MIC of vancomycin and MIC of analogue
Summary of the method: as §2

MIC-fold improvement vs. vancomycin [2]	MIC [2] [µM]	MIC [3] [µM]	MIC [4] [µM]	MIC-fold improvement vs. vancomycin [4]	MIC-fold improvement vs. vancomycin [6]	MIC [6] [µM]	MIC [7] [µM]	MIC-fold improvement vs. vancomycin [7]	MIC [8] [µM]	MIC-fold improvement vs. vancomycin [8]	MIC [9] [µM]	MIC-fold improvement vs. vancomycin [9]	MIC-fold improvement vs. vancomycin [10]	MIC [10] [µM]	MIC-fold improvement vs. vancomycin [11]	MIC [11] [µM]	Compound	IC50 [1] [µM]	IC50 [5] [µM]	IC50 [12] [µM]	further results
2	0.39 (≈ 0.643 µg/mL)	50 (≈ 82.5 µg/mL)	50 (≈ 82.5 µg/mL)	8	2	0.39 (≈ 0.643 µg/mL)	0.39 (≈ 0.643 µg/mL)	2	0.78 (≈ 1.29 µg/mL)	2	1.56 (≈ 2.57 µg/mL)	64	1	0.78 (≈ 1.29 µg/mL)	1	0.78 (≈ 1.29 µg/mL)	CNC(CC(C)C)C(=O)NC1C(=O)NC(CC(N)=O)C(=O)NC2C(=O)NC3C(=O)NC(C(=O)NC(C(=O)NCCCNC(=O)c4nc5ccccc5[nH]4)c4cc(O)cc(O)c4-c4cc3ccc4O)C(O)c3ccc(c(Cl)c3)Oc3cc2cc(c3OC2OC(CO)C(O)C(O)C2OC2CC(C)(N)C(O)C(C)O2)Oc2ccc(cc2Cl)C1O (centres unmarked) [Vanc-52]	≥ 250	104 ± 13	201	MIC-fold improvement vs. vancomycin [3]: 8; MIC [13]: 25 µM (≈ 41.2 µg/mL); MIC-fold improvement vs. vancomycin [13]: 8; MIC [14]: 0.78 µM (≈ 1.29 µg/mL); MIC-fold improvement vs. vancomycin [14]: 8; IC50 [15]: > 250 µM; MIC [16]: 25 µM (≈ 41.2 µg/mL); MIC-fold improvement vs. vancomycin [16]: 16
8	0.10 (≈ 0.167 µg/mL)	3.13 (≈ 5.23 µg/mL)	3.13 (≈ 5.23 µg/mL)	128	8	0.10 (≈ 0.167 µg/mL)	0.10 (≈ 0.167 µg/mL)	8	≤0.05	≥32	0.78 (≈ 1.3 µg/mL)	128	4	0.20 (≈ 0.334 µg/mL)	4	0.20 (≈ 0.334 µg/mL)	CNC(CC(C)C)C(=O)NC1C(=O)NC(CC(N)=O)C(=O)NC2C(=O)NC3C(=O)NC(C(=O)NC(C(=O)NCC(=O)NC4c5ccccc5-c5ccccc54)c4cc(O)cc(O)c4-c4cc3ccc4O)C(O)c3ccc(c(Cl)c3)Oc3cc2cc(c3OC2OC(CO)C(O)C(O)C2OC2CC(C)(N)C(O)C(C)O2)Oc2ccc(cc2Cl)C1O (centres unmarked) [Vanc-90]	175 ± 106	127 ± 27	123	MIC-fold improvement vs. vancomycin [3]: 128; MIC [13]: 1.56 µM (≈ 2.6 µg/mL); MIC-fold improvement vs. vancomycin [13]: 128; MIC [14]: 0.39 µM (≈ 0.651 µg/mL); MIC-fold improvement vs. vancomycin [14]: 16; IC50 [15]: 68 ± 8 µM; MIC [16]: 12.5 µM (≈ 20.9 µg/mL); MIC-fold improvement vs. vancomycin [16]: 32
1	0.78 (≈ 1.23 µg/mL)	25 (≈ 39.5 µg/mL)	25 (≈ 39.5 µg/mL)	16	1	0.78 (≈ 1.23 µg/mL)	0.78 (≈ 1.23 µg/mL)	1	0.78 (≈ 1.23 µg/mL)	2	25 (≈ 39.5 µg/mL)	4	1	0.78 (≈ 1.23 µg/mL)	1	0.78 (≈ 1.23 µg/mL)	CN[C@H](CC(C)C)C(=O)N[C@H]1C(=O)N[C@@H](CC(N)=O)C(=O)N[C@H]2C(=O)N[C@H]3C(=O)N[C@H](C(=O)N[C@H](C(=O)NCC(=O)Nc4ccccc4)c4cc(O)cc(O)c4-c4cc3ccc4O)[C@H](O)c3ccc(c(Cl)c3)Oc3cc2cc(c3O[C@@H]2O[C@H](CO)[C@@H](O)[C@H](O)[C@H]2O[C@H]2C[C@](C)(N)[C@H](O)[C@H](C)O2)Oc2ccc(cc2Cl)[C@H]1O [Vanc-3]	> 250	> 250	> 250	MIC [13]: 12.5 µM (≈ 19.8 µg/mL); MIC-fold improvement vs. vancomycin [13]: 16; MIC [14]: 0.78 µM (≈ 1.23 µg/mL); MIC-fold improvement vs. vancomycin [14]: 8; IC50 [15]: > 250 µM; MIC [16]: 25 µM (≈ 39.5 µg/mL); MIC-fold improvement vs. vancomycin [16]: 16
